Results: patent US20040248919A1, “Fluorinated trienes and their use as rxr modulators” (priority 2001, published 2004)

How the values were obtained:
RARα = molecular target: T1, RARα (Homo sapiens, UniProt P10276); experiment: RAR binding, competition with tritiated retinoid; conditions: read-out: RAR Binding alpha
T1 sequence (P10276 1-462): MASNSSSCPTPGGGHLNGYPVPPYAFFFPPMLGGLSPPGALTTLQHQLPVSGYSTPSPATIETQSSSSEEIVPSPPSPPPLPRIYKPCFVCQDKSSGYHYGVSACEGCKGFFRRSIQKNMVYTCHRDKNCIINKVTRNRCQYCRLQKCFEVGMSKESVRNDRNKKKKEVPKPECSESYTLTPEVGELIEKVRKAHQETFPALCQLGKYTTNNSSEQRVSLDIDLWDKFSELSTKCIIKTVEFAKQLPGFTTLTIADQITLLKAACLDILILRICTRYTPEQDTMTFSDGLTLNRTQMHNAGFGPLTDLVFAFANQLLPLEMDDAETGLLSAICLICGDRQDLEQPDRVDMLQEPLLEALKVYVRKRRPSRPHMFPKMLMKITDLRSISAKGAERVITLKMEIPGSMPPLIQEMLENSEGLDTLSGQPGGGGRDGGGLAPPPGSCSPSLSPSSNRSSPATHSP
Excerpt: (§1) In addition to the cotransfection data, the binding of selected compounds of the present invention to the RAR and RXR receptors was also investigated according to the methodology described in M. F., Boehm, et al., “Synthesis and Structure-Activity Relation-ships of Novel Retinoid X Receptor Selective Retinoids”, 37 J. Med. Chem., 2930 (1994); M. F. Boehm, et al., “Synthesis of High Specific Activity [^3H]-9-cis Retinoic Acid and Its Application for Identifying Retinoids with Unusual Binding Properties”, 37 J. Med. Chem., 408 (1994), and E. A. Allegretto, et al., “Characterization and Comparison of Hormone-Binding and Transactivation Properties of Retinoic Acid and Retinoid X Receptors Expressed in Mammalian Cells and Yeast”, 268 J. Biol. Chem., 22625 (1993), the disclosures of which are herein incorporated by reference.
(§2) Non-specific binding was defined as that binding remaining in the presence of 500 nM of the appropriate unlabelled compound. At the end of the incubation period, bound ligand was separated from free. The amount of bound tritiated retinoid was determined by liquid scintillation counting of an aliquot (700 μL) of the supernatant fluid or the hydroxylapatite pellet.
(§3) After correcting for non-specific binding, IC50 values were determined. The IC50 value is defined as the concentration of competing ligand needed to reduce specific binding by 50%. The IC50 value was determined graphically from a log-logit plot of the data. The Ki values were determined by application of the Cheng-Prussof equation to the IC50 values, the labeled ligand concentration and the Kd of the labeled ligand.

RARγ = molecular target: T2, RARγ (Homo sapiens, UniProt P13631); experiment: RAR binding, competition with tritiated retinoid; conditions: read-out: RAR Binding gamma
T2 sequence (P13631 1-454): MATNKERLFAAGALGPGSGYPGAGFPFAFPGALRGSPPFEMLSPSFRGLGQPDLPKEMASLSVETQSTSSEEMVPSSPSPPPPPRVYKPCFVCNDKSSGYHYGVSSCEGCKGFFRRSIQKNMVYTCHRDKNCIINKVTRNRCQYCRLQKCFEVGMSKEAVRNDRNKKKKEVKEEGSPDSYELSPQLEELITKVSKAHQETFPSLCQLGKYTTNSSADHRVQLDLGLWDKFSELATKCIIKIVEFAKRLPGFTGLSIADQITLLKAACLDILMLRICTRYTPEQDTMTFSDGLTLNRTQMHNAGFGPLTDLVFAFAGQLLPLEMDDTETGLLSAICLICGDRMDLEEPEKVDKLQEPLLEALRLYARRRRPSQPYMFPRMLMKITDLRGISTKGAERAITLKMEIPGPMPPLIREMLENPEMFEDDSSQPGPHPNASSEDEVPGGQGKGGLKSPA
Excerpt: as §1, §2, §3

Compound | Ki (RARα) | Ki (RARγ)
C/C(=C/C(F)=C/C(C)=C/C(=O)O)c1cc(C(C)(C)C)cc(C(C)(C)C)c1OCC(F)F [Example 2, 7-[3,5-Di-tert-butyl-2-(2,2-difluoroethoxy)-phenyl]-5-fluoro-3-methyl-octa-2,4,6-trienoic acid] | > 10 µM | 
C/C(=C/C=C(F)/C(C)=C/C(=O)O)c1cc(C(C)(C)C)cc(C(C)(C)C)c1OCC(F)F [Example 1, 7-[3,5-di-tert-butyl-2-(2,2-difluoroethoxy)-phenyl]4-fluoro-3-methyl-octa-2,4,6-trienoic acid] | 1.15 µM | 
CCOc1c(\C(=C/C=C/C(C)=C/C(=O)O)C(F)(F)F)cc(C(C)(C)C)cc1C(C)(C)C [Example 5, (2E,4E,6E)-3-methyl-7-(2-ethoxy-3,5-di-tert-butylphenyl)-8,8,8-trifluoroocta-2,4,6-trienoic acid] | > 10 µM | > 10 µM
CCCCOc1c(\C(C)=C/C=C/C(=C\C(=O)O)C(F)(F)F)cc(C(C)C)cc1C(C)C [Example 4, (2E,4E,6Z)-7-(2-Butoxy-3,5-diisopropylphenyl)-3-trifluoromethyl-octa-2,4,6-trienoic acid] | > 10 µM | > 10 µM
CCCCOc1c(\C(C)=C/C=C/C(=C/C(=O)O)C(F)(F)F)cc(C(C)C)cc1C(C)C [Example 3, (2Z,4E,6Z)-7-(2-Butoxy-3,5-diisopropylphenyl)-3-trifluoromethyl-octa-2,4,6-trienoic acid] | > 10 µM | > 10 µM
